The results in this text go back to patent US9271991B2, “Trimegestone (TMG) for treatment of preterm birth” (Dignity Health, priority 2010, dated 2016).

The test system of the data set is offspring of TMG-treated rats. Nature of the data set: Fertility of offspring of TMG-treated pregnant rats. Type of data set: in vivo, rat. As to conditions: offspring bred at 5 months with untreated partners, n=6 per sex. The source says: To determine the effects of TMG on fertility the following procedure was followed. When pups from TMG-treated pregnant rats were of breeding age (5 months) the females were placed with normal (untreated) males for 6 days. Similarly, male pups from TMG-treated rats were placed with normal (untreated) females for 6 days.

`C[C@H](O)C(=O)[C@@]1(C)CC[C@H]2[C@@H]3CCC4=CC(=O)CCC4=C3CC[C@@]21C` [TMG, trimegestone]: the “fertility of male and female offspring of treated rats” value was “not compromised”.
